Reference: patent US11873309B2, “Heterocyclic compounds as immunomodulators” (Incyte Corporation, priority 2016, dated 2024)

Target: T1, PD-1/PD-L1 protein/protein interaction (recombinant human PD-L1 protein (19-238), recombinant human PD-1 protein (25-167)) (Homo sapiens, UniProt Q9NZQ7)
T1 construct: Recombinant human PD-L1 protein (19-238) with a His-tag at the C-terminus; purchased AcroBiosystems PD1-H5229 (PD-L1); PD1-H5257 (PD-1)
Test: PD-1/PD-L1 Homogeneous Time-Resolved Fluorescence (HTRF) Binding Assay
Settings: 25° C., PBS buffer pH 7.4, 40 minutes preincubation with inhibitors
Procedure: Example A. PD-1/PD-L1 Homogeneous Time-Resolved Fluorescence (HTRF) Binding Assay
The assays were conducted in a standard black 384-well polystyrene plate with a final volume of 20 μL. Inhibitors were first serially diluted in DMSO and then added to the plate wells before the addition of other reaction components. The final concentration of DMSO in the assay was 1%. The assays were carried out at 25° C. in the PBS buffer (pH 7.4) with 0.05% Tween-20 and 0.1% BSA. Recombinant human PD-L1 protein (19-238) with a His-tag at the C-terminus was purchased from AcroBiosystems (PD1-H5229). Recombinant human PD-1 protein (25-167) with Fc tag at the C-terminus was also purchased from AcroBiosystems (PD1-H5257). PD-L1 and PD-1 proteins were diluted in the assay buffer and 10 μL was added to the plate well. Plates were centrifuged and proteins were preincubated with inhibitors for 40 minutes. The incubation was followed by the addition of 10 μL of HTRF detection buffer supplemented with Europium cryptate-labeled anti-human IgG (PerkinElmer-AD0212) specific for Fc and anti-His antibody conjugated to SureLight®-Allophycocyanin (APC, PerkinElmer-AD0059H). After centrifugation, the plate was incubated at 25° C. for 60 min. before reading on a PHERAstar FS plate reader (665 nm/620 nm ratio). Final concentrations in the assay were […], 10 nM PD-L1, 1 nM europium anti-human IgG and 20 nM anti-His-Allophycocyanin. IC50 determination was performed by fitting the curve of percent control activity versus the log of the inhibitor concentration using the GraphPad Prism 5.0 software.

T1 sequence (Q9NZQ7 19-238): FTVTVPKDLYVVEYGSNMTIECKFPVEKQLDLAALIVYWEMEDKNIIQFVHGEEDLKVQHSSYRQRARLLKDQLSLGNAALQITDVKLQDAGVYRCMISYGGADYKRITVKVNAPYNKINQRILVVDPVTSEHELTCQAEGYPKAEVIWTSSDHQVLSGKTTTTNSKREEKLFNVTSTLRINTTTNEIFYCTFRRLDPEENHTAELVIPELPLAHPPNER

SMILES | IC50 [nM]
O=C(Nc1cccc(-c2ccccc2)c1Cl)c1nc2c(s1)CNCC2 [Example 33, N-(2-chlorobiphenyl-3-yl)-4,5,6,7-tetrahydro[1,3]thiazolo[5,4-c]pyridine-2-carboxamide] | ≤ 100
O=C(Nc1cccc(-c2ccc3c(c2)OCCO3)c1Cl)c1nc2c(s1)CNCC2 [Example 34, N-[2-chloro-3-(2,3-dihydro-1,4-benzodioxin-6-yl)phenyl]-4,5,6,7-tetrahydro[1,3]thiazolo[5,4-c]pyridine-2-carboxamide] | ≤ 100
Cn1ncc2c(-c3cccc(NC(=O)c4nc5c(s4)CNCC5)c3Cl)cccc21 [Example 35, N-(2-chloro-3-(1-methyl-1H-indazol-4-yl)phenyl)-4,5,6,7-tetrahydrothiazolo[5,4-c]pyridine-2-carboxamide] | ≤ 100
Cc1c(NC(=O)c2nc3c(s2)CNCC3)cc(F)cc1-c1ccc2c(c1)OCCO2 [Example 36, N-[3-(2,3-dihydro-1,4-benzodioxin-6-yl)-5-fluoro-2-methylphenyl]-4,5,6,7-tetrahydro[1,3]thiazolo[5,4-c]pyridine-2-carboxamide] | ≤ 100
Cc1c(NC(=O)c2nc3c(s2)CNCC3)ccnc1-c1ccc2c(c1)OCCO2 [Example 37, N-[2-(2,3-dihydro-1,4-benzodioxin-6-yl)-3-methylpyridin-4-yl]-4,5,6,7-tetrahydro[1,3]thiazolo[5,4-c]pyridine-2-carboxamide] | 500 to 10000
Cc1c(NC(=O)c2nc3c(s2)CNCC3)cncc1-c1ccc2c(c1)OCCO2 [Example 38, N-[5-(2,3-dihydro-1,4-benzodioxin-6-yl)-4-methylpyridin-3-yl]-4,5,6,7-tetrahydro[1,3]thiazolo[5,4-c]pyridine-2-carboxamide] | 500 to 10000
COc1cccc(-c2cccc(NC(=O)c3nc4c(n3C)CCNC4)c2C#N)c1F [Example 39, N-(2-cyano-2′-fluoro-3′-methoxybiphenyl-3-yl)-1-methyl-4,5,6,7-tetrahydro-1H-imidazo[4,5-c]pyridine-2-carboxamide] | ≤ 100
COc1cccc(-c2cccc(NC(=O)c3nc4c(n3C)CCN(CCO)C4)c2C#N)c1F [Example 40, N-(2-cyano-2′-fluoro-3′-methoxybiphenyl-3-yl)-5-(2-hydroxyethyl)-1-methyl-4,5,6,7-tetrahydro-1H-imidazo[4,5-c]pyridine-2-carboxamide] | ≤ 100
COc1cccc(-c2cccc(NC(=O)c3nc4c(n3C)CCN(CC(=O)O)C4)c2C#N)c1F [Example 41, (2-{[(2-cyano-2′-fluoro-3′-methoxybiphenyl-3-yl)amino]carbonyl}-1-methyl-1,4,6,7-tetrahydro-5H-imidazo[4,5-c]pyridin-5-yl)acetic acid] | 100 to 500
Cn1c(C(=O)Nc2cccc(-c3cccc4c3cnn4C)c2C#N)nc2c1CCNC2 [Example 42, N-(2-cyano-3-(1-methyl-1H-indazol-4-yl)phenyl)-1-methyl-4,5,6,7-tetrahydro-1H-imidazo[4,5-c]pyridine-2-carboxamide] | 100 to 500
